Target: T1, PD-1/PD-L1 (Homo sapiens, UniProt Q9NZQ7)
T1 construct: TVMV protease site linker (C); made in house; host or cells: HEK293T cells
Test: PD-1/PD-L1 Homogenous Time-Resolved Fluorescence (HTRF) binding assay
Conditions: PD-L1-His 10 nM, PD-1-Ig 20 nM
From the text: The ability of the compounds of the invention to bind to PD-L1 was investigated using a PD-1/PD-L1 Homogenous Time-Resolved Fluorescence (HTRF) binding assay.
Homogenous Time-Resolved Fluorescence (HTRF) binding assay.
The interaction of PD-1 and PD-L1 can be assessed using soluble, purified preparations of the extracellular domains of the two proteins. The PD-1 and PD-L1 protein extracellular domains were expressed as fusion proteins with detection tags, for PD-1, the tag was the Fc portion of Immunoglobulin (PD-1-Ig) and for PD-L1 it was the 6 histidine motif (PD-L1-His). All binding studies were performed in an HTRF assay buffer consisting of dPBS supplemented with 0.1% […] bovine serum albumin and 0.05% (v/v) Tween-20. For the h/PD-L1-His binding assay, inhibitors were pre-incubated with PD-L1-His (10 nM final) for 15 m in 4 μl of assay buffer, followed by addition of PD-1-Ig (20 nM final) in 1 μl of assay buffer and further incubation for 15 m. HTRF detection was achieved using europium crypate-labeled anti-Ig (1 nM final) and allophycocyanin (APC) labeled anti-His (20 nM final). Antibodies were diluted in HTRF detection buffer and 5 μl was dispensed on top of the binding reaction. […] Additional binding assays were established between the human proteins PD-1-Ig/PD-L2-His (20 & 5 nM, respectively) and CD80-His/PD-L1-Ig (100 & 10 nM, respectively). […]

T1 sequence (Q9NZQ7 18-239): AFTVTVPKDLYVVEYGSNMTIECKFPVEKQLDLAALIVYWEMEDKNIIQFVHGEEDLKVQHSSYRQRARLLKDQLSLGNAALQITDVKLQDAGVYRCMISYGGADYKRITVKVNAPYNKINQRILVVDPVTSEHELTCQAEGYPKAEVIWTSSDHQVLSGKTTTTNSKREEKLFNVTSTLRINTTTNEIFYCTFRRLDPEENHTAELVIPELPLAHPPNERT

Row | Structure (SMILES) | IC50 [nM]
1 | Cc1c(COc2cc(OCc3cncc(C#N)c3)c(CN3CCCC(c4nnc[nH]4)C3)cc2Cl)cccc1-c1cccc(OCCCN2CC[C@@H](O)C2)c1C (stereo partly drawn) [Example 1008, 5-((2-((3-(4H-1,2,4-Triazol-3-yl)piperidin-1-yl)methyl)-4-chloro-5-((3′-(3-((R)-3-hydroxypyrrolidin-1-yl)propoxy)-2,2′-dimethyl-[1,1′-biphenyl]-3-yl)methoxy)phenoxy)-methyl)nicotinonitrile] | 4.2
2 | Cc1c(COc2cc(OCc3cncc(C#N)c3)c(CN(C)CC(C)c3nnn[nH]3)cc2Cl)cccc1-c1cccc(OCCCN2CC[C@@H](O)C2)c1C (stereo partly drawn) [Example 1006, 5-((2-(((2-(1H-Tetrazol-5-yl)propyl)(methyl)amino)methyl)-4-chloro-5-((3′-(3-((R)-3-hydroxypyrrolidin-1-yl)propoxy)-2,2′-dimethyl-[1,1′-biphenyl]-3-yl)methoxy)phenoxy)methyl)nicotinonitrile] | 2.7
3 | CC(=O)NC1CCN(CCCOc2cccc(-c3cccc(COc4cc(OCc5cncc(C#N)c5)c(CN5CCCCC5c5nnn[nH]5)cc4Cl)c3C)c2Cl)CC1 (centres unmarked) [Example 1055, N-(1-(3-((3′-((4-((2-(1H-Tetrazol-5-yl)piperidin-1-yl)methyl)-2-chloro-5-((5-cyano-pyridin-3-yl)methoxy)phenoxy)methyl)-2-chloro-2′-methyl-[1,1′-biphenyl]-3-yl)oxy)-propyl)-piperidin-4-yl)acetamide] | 1.2
4 | COc1cc(OCc2cccc(-c3cccc(OCC4CCCN(C)C4)c3Cl)c2C)c(Cl)cc1CNCc1cn[nH]c1 (centres unmarked) [Example 2056, N-((1H-pyrazol-4-yl)methyl)-1-(5-chloro-4-((2′-chloro-2-methyl-3′-((1-methylpiperidin-3-yl)methoxy)-[1,1′-biphenyl]-3-yl)methoxy)-2-methoxyphenyl)methanamine] | 3.5

Results, then the compound that gave them:

Row | IC50 [nM] | Structure (SMILES)
5 | 8.9 | Cc1c(COc2cc(OCc3cncc(C#N)c3)c(CNCc3cccnc3Cl)cc2Cl)cccc1-c1cccc(OCC2CCCN(C)C2)c1Cl (centres unmarked) [Example 2621, 5-((4-chloro-5-((2′-chloro-2-methyl-3′-((1-methylpiperidin-3-yl)methoxy)-[1,1′-biphenyl]-3-yl)methoxy)-2-((((2-chloropyridin-3-yl)methyl)amino)methyl)phenoxy)methyl)nicotinonitrile]
6 | 258 | Cc1c(COc2cc(OCc3cncc(C#N)c3)c(CN(C)Cc3nc4ccccc4s3)cc2Cl)cccc1-c1cccc(OCCCN2CC[C@@H](O)C2)c1C [Example 2554, (R)-5-((2-(((benzo[d]thiazol-2-ylmethyl)(methyl)amino)methyl)-4-chloro-5-((3′-(3-(3-hydroxypyrrolidin-1-yl)propoxy)-2,2′-dimethyl-[1,1′-biphenyl]-3-yl)methoxy)phenoxy)methyl)nicotinonitrile]
7 | 89.6 | Cc1c(COc2cc(OCc3cncc(C#N)c3)c(CNCc3cn[nH]n3)cc2Cl)cccc1-c1cccc(OCC2CCCN(CCC(F)(F)F)C2)c1Cl (centres unmarked) [Example 2068, 5-((2-((((2H-1,2,3-triazol-4-yl)methyl)amino)methyl)-4-chloro-5-((2′-chloro-2-methyl-3′-((1-(3,3,3-trifluoropropyl)piperidin-3-yl)methoxy)-[1,1′-biphenyl]-3-yl)methoxy)phenoxy)methyl)nicotinonitrile]
8 | 0.7 | Cc1c(COc2cc(OCc3cncc(C#N)c3)c(CN(C)Cc3nc[nH]n3)cc2Cl)cccc1-c1cccc(OCC2CCCN(C)C2)c1Cl (centres unmarked) [Example 2618, 5-((2-((((1H-1,2,4-triazol-3-yl)methyl)(methyl)amino)methyl)-4-chloro-5-((2′-chloro-2-methyl-3′-((1-methylpiperidin-3-yl)methoxy)-[1,1′-biphenyl]-3-yl)methoxy)phenoxy)methyl)nicotinonitrile]
